SMILES strings stand for the structures.

The test system of test [1] is HCT116 cells. In words: Colon Carcinoma Xenograft Efficacy Study. The following applies: intraperitoneal, twice daily, vs vehicle (FIG. 11). Type of test: in vivo, mice. As to the method: Female scid/bg mice, approximately 6 weeks of age, were implanted subcutaneously on the right flank with 5×10^6 HCT116 cells per mouse in a volume of 100 uL of sterile PBS. When tumors reached a volume of 50-100 mm^3, mice were randomized to groups of n=10 to receive either vehicle or test compound delivered twice daily by intraperitoneal injection. Tumors were measured three times per week using Vernier calipers and tumor volume calculated using the formula: Volume=(Length×Width^2/2), where length and width are the longest perpendicular sides of the tumor. Dosing continued twice daily until control tumors reached a size of 2000 mm^3 Statistical comparisons were made using a 2-way ANOVA with Bonferroni post-test.

The test system of test [2] is P493-6 (myc "on") cells. In words: Cell Proliferation Assay. The following applies: P493-6, 72 h, read-out: Cell prolif P493 72 h IC50, P493 cells, 72 h. The test is classed as cell-based. The essentials: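 P493-6 cells with myc on, 10,000 per well in RPMI/10% FBS, exposed to serially diluted compound (0.5% DMSO final) for 72 h at 37 °C, 5% CO2. Antiproliferative effect read by Cell Titer Glo luminescence or Viacount FACS viability count.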

In test [3] the target is T1, recombinant form of glutaminase (GAC Delta N2) (Homo sapiens, UniProt O94925).
T1 sequence (O94925 137-598 isoform O94925-3 limits assumed): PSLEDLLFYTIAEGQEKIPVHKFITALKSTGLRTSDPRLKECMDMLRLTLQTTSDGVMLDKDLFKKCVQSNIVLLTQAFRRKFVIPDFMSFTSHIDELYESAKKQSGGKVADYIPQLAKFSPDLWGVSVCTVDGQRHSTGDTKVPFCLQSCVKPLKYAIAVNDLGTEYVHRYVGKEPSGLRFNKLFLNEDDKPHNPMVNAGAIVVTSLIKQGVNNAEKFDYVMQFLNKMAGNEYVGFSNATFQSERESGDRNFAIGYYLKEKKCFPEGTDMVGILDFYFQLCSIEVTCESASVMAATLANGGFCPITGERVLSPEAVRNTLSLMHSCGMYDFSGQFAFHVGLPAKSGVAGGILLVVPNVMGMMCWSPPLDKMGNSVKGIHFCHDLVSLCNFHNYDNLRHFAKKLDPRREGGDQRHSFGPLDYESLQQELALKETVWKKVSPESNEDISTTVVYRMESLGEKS
In words: Modified Recombinant Enzyme Assay - Time Dependence. The test is classed as biochemical. The following applies: 60 min preincubation.
Method: Compounds were assessed for their ability to inhibit the enzymatic activity of a recombinant form of glutaminase using a biochemical assay that couples the production of Glu (liberated by glutaminase) to GDH and measures the increase in fluorescence due to the reduction of NADP+ to NADPH.
3x-enzyme-containing solution was made by diluting recombinant glutaminase and GDH from Proteus species (Sigma Aldrich no. G4387) into glutaminase buffer to create a 6 nM glutaminase plus 18 units/mL GDH solution. […] When time-dependent effects of compound inhibition were tested, enzyme-containing solution was treated with inhibitor-containing solution for the indicated time prior to addition of substrate-containing solution.
IC50 Determination: The initial velocities of each progress curve were calculated using a straight line equation (Y=Yintercept+(slope)*X). Initial velocity values were plotted against compound concentration and fit to a four parameter dose response equation (% activity=Bottom+(Top−Bottom)/(1+10̂((LogIC50−X)*HillSlope))) to calculate an IC50 value.

Turning to `O=C(CCN1CCOCC1)OCC(C(=O)Nc1nnc(CCCCc2nnc(NC(=O)C(COC(=O)CCN3CCOCC3)c3ccccc3)s2)s1)c1ccccc1` (stereo not shown) [Compound 188, {[5,5′-(butane-1,4-diyl)-bis(1,3,4-thiadiazole-5,2-diyl)]-bis(azanediyl)}-bis(3-oxo-2-phenylpropane-3,1-diyl)-bis(3-morpholinopropanoate)], the tumor size entry in test [1] was “reduced tumor size”. In test [2], the IC50 came out at 460 nM.
In the case of `COc1cc(CC(=O)Nc2ccc(CCCCc3nnc(NC(=O)Cc4ccccn4)s3)nn2)cc(OC(F)(F)F)c1` [Compound 729], the IC50 in test [3] is 16 nM.
With `O=C(Cc1cc(O)cc(OC(F)(F)F)c1)Nc1ccc(CCCCc2nnc(NC(=O)Cc3ccccn3)s2)nn1` [Compound 730], the IC50 in test [3] was determined as 13 nM.
